{"source": "paper PMC8860565", "about": "“Molecular Insights into How the Dimetal Center in Dihydropyrimidinase Can Bind the Thymine Antagonist 5-Aminouracil: A Different Binding Mode from the Anticancer Drug 5-Fluorouracil” (Bioinorganic Chemistry and Applications, 2022)", "key": {"[1]": {"biological_target": "T1, Pseudomonas aeruginosa DHPase (PaDHPase) (Pseudomonas aeruginosa, UniProt Q9I676)", "T1 construct": "made in house; host or cells: Escherichia coli BL21 (DE3)", "test": "Fluorescence quenching titration of wild-type PaDHPase", "assay_type": "binding", "procedure": "(§1) Through the fluorescence quenching analysis, the Kd value of the purified PaDHPase was determined. An aliquot of 5-AU was added into the solution containing PaDHPase (0.8 μM) and 50 mM HEPES at pH 7.0. The decrease in the intrinsic fluorescence of PaDHPase was measured at 336 nm upon excitation at 279 nm and 25°C with a spectrofluorimeter (Hitachi F-2700; Hitachi High-Technologies, Japan). The Kd was obtained using the equation: ΔF = ΔFmax − Kd(ΔF/[5-AU]).\nPrior to this study, whether 5-AU could bind to DHPase remained unknown. To confirm if PaDHPase is capable of binding 5-AU, we used the fluorescence quenching method to determine the binding ability of PaDHPase (Figure 4). Quenching is a complex formation process that decreases the fluorescence intensity of protein. […] When 5-AU was titrated into the PaDHPase solution, the intrinsic fluorescence of the protein was progressively quenched. Upon the addition of 300 μM 5-AU, the intrinsic fluorescence of PaDHPase was quenched by 87.3%.\n(§2) Figure 4 Fluorescence titration of PaDHPase with 5-AU. (a) The fluorescence emission spectra of PaDHPase with 5-AU of different concentrations (0–300 μM). The decrease in intrinsic fluorescence of protein was measured at 336 nm upon excitation at 279 nm with a spectrofluorimeter. […] (b) The fluorescence emission spectra of PaDHPase-Y155A with 5-AU of different concentrations (0–300 μM). (c) The fluorescence emission spectra of PaDHPase-S289A with 5-AU. (d) The fluorescence emission spectra of PaDHPase-N337A with 5-AU. (e) The fluorescence emission spectra of PaDHPase-C318A with 5-AU. (f) The fluorescence emission spectra of Znα-PaDHPase with 5-AU. (g) An aliquot amount of 5-AU was added to the enzyme solution for determining the Kd. The Kd was obtained by the equation: ΔF = ΔFmax − Kd(ΔF/[5-AU]). Data points are an average of 2–3 determinations within 10% error."}, "[2]": {"biological_target": "T2, PaDHPase-Y155A (Pseudomonas aeruginosa, UniProt Q9I676, Y155A)", "T2 construct": "made in house; host or cells: Escherichia coli BL21 (DE3) (stated for the wild type; mutants purified by the same protocol)", "T2 sequence (Q9I676 whole entry Y155A)": "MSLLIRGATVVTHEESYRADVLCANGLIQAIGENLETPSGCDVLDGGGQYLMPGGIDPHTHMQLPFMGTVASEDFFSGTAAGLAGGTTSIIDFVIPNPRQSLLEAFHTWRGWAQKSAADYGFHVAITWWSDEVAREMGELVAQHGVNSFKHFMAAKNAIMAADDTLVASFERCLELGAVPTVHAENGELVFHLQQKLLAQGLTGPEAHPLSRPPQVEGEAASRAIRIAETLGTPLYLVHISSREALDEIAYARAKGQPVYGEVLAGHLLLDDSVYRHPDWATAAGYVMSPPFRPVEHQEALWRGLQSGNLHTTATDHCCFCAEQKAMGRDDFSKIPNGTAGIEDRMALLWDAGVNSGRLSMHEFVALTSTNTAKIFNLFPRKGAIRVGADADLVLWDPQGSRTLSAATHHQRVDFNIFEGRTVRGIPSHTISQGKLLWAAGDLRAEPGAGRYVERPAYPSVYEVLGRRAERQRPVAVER", "test": "Fluorescence quenching titration of PaDHPase-Y155A mutant", "assay_type": "binding", "text": "(§3) The PaDHPase mutants were generated according to the QuikChange Site-Directed Mutagenesis kit protocol (Stratagene; La Jolla, CA, USA). The wild-type plasmid pET21b-PaDHPase was used as a template. The presence of the mutation was verified by DNA sequencing in each construct. The recombinant mutant proteins were purified using the protocol for the wild-type PaDHPase by Ni^2+-affinity chromatography (Table 1).\nas §1, with “The Kd was obtained using the equation: ΔF = ΔFmax − Kd(ΔF/[5-AU]).” left out\nas §2, with “(f) The fluorescence emission spectra of Znα-PaDHPase with 5-AU. (g) An aliquot amount of 5-AU was added to the enzyme solution for determining the Kd. The Kd was obtained by the equation: ΔF = ΔFmax − Kd(ΔF/[5-AU]). Data points are an average of 2–3 determinations within 10% error.” left out"}, "[3]": {"biological_target": "T3, PaDHPase-S289A (Pseudomonas aeruginosa, UniProt Q9I676, S289A)", "T3 construct": "made in house; host or cells: Escherichia coli BL21 (DE3) (stated for the wild type; mutants purified by the same protocol)", "T3 sequence (Q9I676 whole entry S289A)": "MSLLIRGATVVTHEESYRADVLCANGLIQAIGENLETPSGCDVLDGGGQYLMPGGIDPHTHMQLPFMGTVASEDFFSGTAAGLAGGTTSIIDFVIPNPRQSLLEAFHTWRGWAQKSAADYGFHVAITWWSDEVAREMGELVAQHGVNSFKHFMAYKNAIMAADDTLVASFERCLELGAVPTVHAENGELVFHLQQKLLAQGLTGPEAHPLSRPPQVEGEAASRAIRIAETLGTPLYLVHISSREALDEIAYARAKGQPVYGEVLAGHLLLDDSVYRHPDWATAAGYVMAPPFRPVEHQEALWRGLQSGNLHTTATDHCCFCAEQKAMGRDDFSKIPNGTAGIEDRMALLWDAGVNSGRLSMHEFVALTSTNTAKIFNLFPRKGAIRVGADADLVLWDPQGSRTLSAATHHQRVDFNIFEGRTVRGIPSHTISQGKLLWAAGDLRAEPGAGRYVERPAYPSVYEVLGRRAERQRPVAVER", "test": "Fluorescence quenching titration of PaDHPase-S289A mutant", "assay_type": "binding", "text": "as §3, §1, §2\n(§4) 5-AU interacts with the main chains of residues Ser289 and Asn337 and the side chain of residue Tyr155. To investigate the contribution of individual amino acid residues to 5-AU binding, alanine substitution mutants (Table 2) were constructed and analyzed by fluorescence quenching (Figures 4(b)–4(d))."}, "[4]": {"biological_target": "T4, PaDHPase-N337A (Pseudomonas aeruginosa, UniProt Q9I676, N337A)", "T4 construct": "made in house; host or cells: Escherichia coli BL21 (DE3) (stated for the wild type; mutants purified by the same protocol)", "T4 sequence (Q9I676 whole entry N337A)": "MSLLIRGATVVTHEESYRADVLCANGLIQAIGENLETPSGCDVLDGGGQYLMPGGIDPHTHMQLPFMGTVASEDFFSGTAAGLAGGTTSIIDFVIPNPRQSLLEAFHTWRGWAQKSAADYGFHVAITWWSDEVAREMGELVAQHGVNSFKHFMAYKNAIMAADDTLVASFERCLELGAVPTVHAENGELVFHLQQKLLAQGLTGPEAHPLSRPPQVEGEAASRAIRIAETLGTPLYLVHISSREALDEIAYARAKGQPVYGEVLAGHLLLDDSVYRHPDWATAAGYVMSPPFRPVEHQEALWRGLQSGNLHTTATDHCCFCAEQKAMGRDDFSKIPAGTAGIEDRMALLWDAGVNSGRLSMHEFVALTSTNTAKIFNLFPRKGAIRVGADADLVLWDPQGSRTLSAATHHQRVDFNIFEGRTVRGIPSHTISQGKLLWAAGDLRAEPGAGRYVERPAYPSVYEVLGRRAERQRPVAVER", "test": "Fluorescence quenching titration of PaDHPase-N337A mutant", "assay_type": "binding", "text": "as §3, §1, §2, §4"}, "[5]": {"biological_target": "T5, PaDHPase-C318A (Pseudomonas aeruginosa, UniProt Q9I676, C318A)", "T5 construct": "made in house; host or cells: Escherichia coli BL21 (DE3) (stated for the wild type; mutants purified by the same protocol)", "T5 sequence (Q9I676 whole entry C318A)": "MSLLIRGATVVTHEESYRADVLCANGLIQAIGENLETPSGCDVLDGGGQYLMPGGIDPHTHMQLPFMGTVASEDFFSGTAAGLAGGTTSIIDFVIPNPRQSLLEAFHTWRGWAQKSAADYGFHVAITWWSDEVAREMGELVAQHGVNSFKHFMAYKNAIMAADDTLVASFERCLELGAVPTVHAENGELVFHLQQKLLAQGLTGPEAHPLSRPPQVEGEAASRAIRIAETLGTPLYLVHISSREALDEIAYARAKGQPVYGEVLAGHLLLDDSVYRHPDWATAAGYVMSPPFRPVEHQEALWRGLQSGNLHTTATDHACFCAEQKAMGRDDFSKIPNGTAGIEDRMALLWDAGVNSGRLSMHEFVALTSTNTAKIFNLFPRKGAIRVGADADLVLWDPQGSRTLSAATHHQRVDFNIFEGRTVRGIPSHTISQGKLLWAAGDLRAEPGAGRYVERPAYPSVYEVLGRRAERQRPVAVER", "test": "Fluorescence quenching titration of PaDHPase-C318A mutant", "assay_type": "binding", "text": "as §3, §1, §2\nStructurally, Cys318 is involved in 5-FU [44] but not 5-AU. For comparison, the C318A mutant was also analyzed by fluorescence quenching (Figure 4(e)). […] The abilities of the wild-type PaDHPase and the C318A mutant to bind 5-AU are approximately equal. Thus, Cys318 is not essential for 5-AU binding."}, "[6]": {"biological_target": "T6, Znα-PaDHPase (mono-Zn PaDHPase) (Pseudomonas aeruginosa, UniProt Q9I676)", "T6 construct": "made in house; host or cells: Escherichia coli BL21 (DE3)", "test": "Fluorescence quenching titration of mono-Zn PaDHPase", "assay_type": "binding", "procedure": "The mono-Zn PaDHPase was prepared using the protocol described previously. Purified PaDHPase was dialyzed against a chelating buffer (50 mM MES, 50 mM EDTA, and 15 mM 8-HQSA, pH 6.5; Buffer B) at room temperature for 3 days. The resultant enzyme solution was then dialyzed against Buffer A.\nas §1, §2\nTo confirm the role of Znβ in 5-AU binding and to compare the binding contribution with other mutant proteins (Table 3), we produced mono-Zn PaDHPase (Znα-PaDHPase) for binding analysis. […] The binding of 5-AU to Znα-PaDHPase was also analyzed by the fluorescence quenching method (Figure 4(f)). Upon the addition of 300 μM 5-AU, the intrinsic fluorescence of Znα-PaDHPase was quenched by 49.3%. The Kd value of Znα-PaDHPase for 5-AU binding was calculated to be 281.5 ± 9.0 μM from the titration curve (Figure 4(g)). Based on the Kd values, the strength of complex formation with 5-AU followed the following order: the wild-type enzyme ≈ C318A > N337A > Y155A ≈ S289A > Znα-PaDHPase (Table 3)."}, "[7]": {"system": "biphasic interphase-mitotic (IM) cells", "set-up": "method as in PMID 32328702", "conditions": "cited from earlier work"}, "[8]": {"biological_target": "T1, Pseudomonas aeruginosa DHPase (PaDHPase)", "conditions": "read-out: Kd value of PaDHPase bound to 5-FU; wild-type PaDHPase ref 44; cited from earlier work"}}, "note": "Where two headings read alike, the source gives them in different places."}
{"molecule": "Nc1c[nH]c(=O)[nH]c1=O", "note": "[5-AU, 5-aminouracil]", "values": [{"measurement": "Kd", "setting": "[1]", "value": "97.7 ± 2", "unit": "µM"}, {"measurement": "Quenching (%) of intrinsic fluorescence", "setting": "[1]; wild-type PaDHPase, 300 μM 5-AU, emission 336 nm, excitation 279 nm", "value": 87.3, "unit": "%"}, {"measurement": "λ max", "setting": "[1]; wild-type PaDHPase, emission maximum before and after adding 5-AU", "value": "From 336.5 to 343"}, {"measurement": "λ em shift", "setting": "[1]; wild-type PaDHPase, red shift on adding 5-AU", "value": "~6.5", "unit": "nm"}, {"measurement": "Kd", "setting": "[2]", "value": "247 ± 4", "unit": "µM"}, {"measurement": "λ max", "setting": "[2]; PaDHPase-Y155A, emission maximum before and after adding 5-AU", "value": "From 336.5 to 342"}, {"measurement": "Kd", "setting": "[3]", "value": "256 ± 3.2", "unit": "µM"}, {"measurement": "λ em shift", "setting": "[3]; PaDHPase-S289A", "value": 2.0, "unit": "nm"}, {"measurement": "λ max", "setting": "[3]; PaDHPase-S289A, emission maximum before and after adding 5-AU", "value": "From 337 to 339"}, {"measurement": "Kd", "setting": "[4]", "value": "192 ± 8", "unit": "µM"}, {"measurement": "λ em shift", "setting": "[4]; PaDHPase-N337A", "value": 3.5, "unit": "nm"}, {"measurement": "λ max", "setting": "[4]; PaDHPase-N337A, emission maximum before and after adding 5-AU", "value": "From 336 to 339.5"}, {"measurement": "Kd", "setting": "[5]", "value": "103 ± 3.1", "unit": "µM"}, {"measurement": "λ em shift", "setting": "[5]; PaDHPase-C318A", "value": 6.0, "unit": "nm"}, {"measurement": "λ max", "setting": "[5]; PaDHPase-C318A, emission maximum before and after adding 5-AU", "value": "From 336 to 342"}, {"measurement": "Kd", "setting": "[6]", "value": "281 ± 9", "unit": "µM"}, {"measurement": "λ em shift", "setting": "[6]; Znα-PaDHPase", "value": 1.5, "unit": "nm"}, {"measurement": "Quenching (%) of intrinsic fluorescence", "setting": "[6]; Znα-PaDHPase (mono-Zn), 300 μM 5-AU", "value": 49.3, "unit": "%"}, {"measurement": "λ max", "setting": "[6]; Znα-PaDHPase, emission maximum before and after adding 5-AU", "value": "From 335 to 336.5"}, {"measurement": "induction of biphasic interphase-mitotic (IM) cells", "setting": "[7]", "value": "significantly induce biphasic interphase-mitotic (IM) cells"}]}
{"molecule": "O=c1[nH]cc(F)c(=O)[nH]1", "note": "[5-FU, 5-fluorouracil]", "values": [{"measurement": "Kd", "setting": "[8]", "value": "133 ± 8.5", "unit": "µM"}, {"measurement": "induction of biphasic interphase-mitotic (IM) cells", "setting": "[7]", "value": "no induction of IM cells was detected"}]}
